We go through five compounds from US20250262212A1, “COMPOSITION FOR SUPPRESSING PROLIFERATION OF CANCER STEM CELLS” (Chemiteras, Inc., priority 2022, published 2025).

Molecules are shown by their SMILES.

This test relates to cancer stem cells (12037NS). Nature of the test: Proliferation suppressive effect on cancer stem cells (survival rate, WST-8 / Cell Counting Kit-8). Format: cell-based. To be noted: for Survival Rate(%) of cancer stem cells: DMSO control = 100; for proliferation suppressive effect on cancer stem cells (in words): 10 μM, 3 days, verbal assessment. The method, then:
The proliferation suppressive effect of the triazolohalopyrimidine compounds on cancer stem cells was evaluated as follows.
The proliferation suppressive effect of triazolohalopyrimidine compounds on cancer stem cells was evaluated using commercially available anticancer agents and known compounds known to have antitumor effect.
12037NS was used as cancer stem cells. 12037NS are the cells obtained by isolation and purification according to the method referred in Nature 432, No. 18, 396-401 (2004). 12037NS cells are susceptible to cytotoxicity by DMSO (dimethylsulfoxide) used for dilution of test compounds. Accordingly, DMSO was used as control.
Used cancer stem cells were 12037NS which are cultivated cancer stem cells. 12037NS are the cells obtained by isolation and purification according to the method referred in Nature 432, No. 18, 396-401 (2004).
Cancer stem cells (12037NS) were seededat 3.0×10^3 cells/well in a 96-well plate using DMEM (Dulbeco's Modified Eagle Medium).
Test compounds shown in Table 3 were diluted with DMSO and then further diluted with PBS (phosphate buffered saline) to prepare test solutions. The test solution was added to each well to become a final concentration of 10 μM. For controls, DMSO was added to the wells to become a final concentration of 0.1% (v/v).
After adding the test solution, the plate was incubated at 37° C. in a 5% CO2 environment for 3 days.
After incubation, water-soluble tetrazonium salt WST-8 (“Cell Counting Kit-8” coloring reagent; manufactured by Dojindo Laboratories) was added at 10 μL/well to each well and the plate was placed in a 37° C., 5% CO2 environment, and incubated for 2 hours.
The absorbance at 450 nm wavelength was measured for the culture solution in each well of the plate after incubation. WST-8 is reduced by intracellular dehydrogenase to produce water-soluble formazan. The number of living cells can be measured by measuring the absorbance of this formazan at 450 nm.
The survival rate of cancer stem cells was determined by comparing the measured number of living cells with the number of seeded cells.
In the same manner as in [Test Example 1], the survival rate of cancer stem cells was determined for the test compounds shown in Table 4. Triazolohalopyrimidine compound (I)g means 2-(4-hydroxyphenyl)-5-chloro-8-methyl[1.2.4]triazolo[1,5-c]pyrimidine.
Background: Tetrazolium assays rely on reduction of a dye to a coloured formazan, in cell work by metabolically active cells.

Where [1] appears, read: Test Example 1, test compound 10 μM, 3 days incubation.
Setting [2] is: Test Example 2, same manner as Test Example 1 (10 μM, 3 days).

On to `O=c1[nH]cc(F)c(=O)[nH]1` [5-Fluorouracil], for which the “Survival Rate(%) of cancer stem cells” value under setting [1] worked out at 80%. For `Cc1cnc(Cl)n2nc(-c3ccc(Br)cc3)nc12` [Compound (I)d, 2-(4-bromophenyl)-5-chloro-8-methyl[1.2.4]triazolo[1,5-c]pyrimidine], the “proliferation suppressive effect on cancer stem cells (in words)” value is “significantly superior to those of commercially available anticancer agents”. For `Cc1cnc(Cl)n2nc(-c3ccc(Cl)c(Cl)c3)nc12` [Compound (I)f, 2-(3,4-dichlorophenyl)-5-chloro-8-methyl[1.2.4]triazolo[1,5-c]pyrimidine], the “proliferation suppressive effect on cancer stem cells (in words)” value was “significantly superior to those of commercially available anticancer agents”. Regarding `Cc1cnc(Cl)n2nc(-c3ccc(O)cc3)nc12` [Compound (I)g, 2-(4-hydroxyphenyl)-5-chloro-8-methyl[1.2.4]triazolo[1,5-c]pyrimidine], the “Survival Rate(%) of cancer stem cells” value under setting [2] stood at 45%. Take `Cn1nnc2c(C(N)=O)ncn2c1=O` [Temozolomide]: the “Survival Rate(%) of cancer stem cells” value reads like this: under setting [1], 65%; under setting [2], 75%.
